Measured values published in US20190015650A1, “MICRONEEDLE TATTOO PATCHES AND USE THEREOF” (Massachusetts Institute of Technology, priority 2017, published 2019).

Assays:
[1] = Photostability of dyes exposed to compact fluorescent (CFL) bulb; type: physicochemical
Protocol: Dyes were prepared in solution (1 mM) or suspension (1 mg/mL) and exposed to light from a compact fluorescent (CFL) bulb (FIG. 9A). 55 fluorophores were tested including organic, encapsulated organic, inorganic, inorganic nanoparticle, tattoo, and semiconducting polymer dots.

[2] = Chemical stability of dyes: hydrogen peroxide and pH; type: physicochemical
Protocol: Additional evaluations on the dyes to withstand oxidative stress were tested by submerging the dye in 3 mM or 3 micromolar hydrogen peroxide, and compared for signal before and after such treatment (FIG. 9B). 23 fluorophores were tested.
The pH stability of the dyes was evaluated by submerging in different pH ranging from 1 to 13 (FIG. 9C). 17 fluorophores were tested.

Compound | Performance: photostability [1] | Performance: chemical stability [2]
CCCN1/C(=C/C=C2\CCCC(/C=C/C3=[N+](CCC)c4ccccc4C3(C)C)=C2Cl)C(C)(C)c2ccccc21.[I-] [IR780] | Poor photostability | Poor chemical stability
CCN1/C(=C/C=C/C=C/C2=[N+](CCCCCC(=O)O)c3ccc(S(=O)(=O)O)cc3C2(C)C)C(C)(C)c2cc(S(=O)(=O)[O-])ccc21 [CY5] | Poor photostability | Poor chemical stability

Results, then the compound that gave them:

Performance: photostability [1] | Performance: chemical stability [2] | Compound
Poor photostability |  | Rhodamine
Poor photostability | Poor chemical stability | CCN1C(=CC=CC=CC=CC2=[N+](CCCCCC(=O)O)c3ccc(S(=O)(=O)O)cc3C2(C)C)C(C)(C)c2cc(S(=O)(=O)[O-])ccc21 [CY7]
Poor photostability |  | O=C1OC2(c3ccc(O)cc3Oc3cc(O)ccc32)c2ccccc21 [Fluorescein]
